Source: PubChem BioAssay AID540269 (Sanford-Burnham Center for Chemical Genomics, 2011)
Calls of active or inactive are those of the source. No rule for the calls is given here.

Biological target: glucose-6-phosphate dehydrogenase-6-phosphogluconolactonase (Plasmodium falciparum 3D7)
Assay: inhibition of P. falciparum G6PD activity – biochemical, kinetic NADPH detection, orthogonal assay, dose response (AID 540269)
Conditions: purified PfG6PD-6PGL

SMILES	IC50
CCC(C)N(CCNC(=O)c1ccc2c(c1)NC(=O)c1ccccc1S2)C1CCCCC1 (stereo unspecified)	6.35 µM
CCOc1ccccc1CNc1ccc(O)cc1	46.7 µM
C=CCOc1c(Cl)cc(CNc2ccc3[nH]c(=O)[nH]c3c2)cc1OC	> 80 µM (inactive)
[O-][N+](=Cc1ccccc1)c1ccc(Cl)cc1	> 80 µM (inactive)
CCn1c(SCC(=O)Nc2ccccc2OC)nnc1-c1cnccn1	> 80 µM (inactive)
COc1cc(C(=O)ON=C2C=C(C)C(=O)C(C)=C2)cc(OC)c1OC	> 80 µM (inactive)
CCCCCCCCSC1=CC(=O)C(OC)=C(OC)C1=O	> 80 µM (inactive)
O=C1CCN(c2ccccc2)N1	> 80 µM (inactive)
CCN(CC)C(=S)SSC(=S)N(CC)CC	> 80 µM (inactive)
N#CC(C#N)=C1C=CC=CN1/C(=C\c1ccccc1Cl)C(=O)c1ccccc1	> 80 µM (inactive)
Cc1nc(COC(=O)c2cc(O)c3ccccc3c2O)cs1	> 80 µM (inactive)
Cc1ccc(S(=O)(=O)C=CS(=O)(=O)c2ccc(C)cc2)cc1	41.2 µM
C=CCN1CCc2cccc3c2[C@H]1Cc1ccc(O)c(O)c1-3	> 80 µM (inactive)
Cc1cc(=O)[nH]c(N/N=C/c2c(C)nn(-c3ccccc3)c2Cl)n1	17.1 µM
CCOC(=O)c1cnc2ccc(C)cc2c1Sc1ccccc1C(=O)OC	> 80 µM (inactive)
S=C(NN=Cc1ccccn1)N(Cc1ccccn1)Cc1ccccn1	29.5 µM
CCOc1ccc(CNc2ccc(N3CCCC3)cc2)cc1	> 80 µM (inactive)
CC1=CC(C)(C)Nc2ccc(OC(=O)CN3C(=O)CCC3=O)cc21	63.2 µM
COc1cc(N=Cc2c(CO)cnc(C)c2O)cc(OC)c1OC	30.5 µM
COc1cc(CN2CCCC(C(=O)c3ccc4c5c(cccc35)CC4)C2)cc(OC)c1O (stereo unspecified)	28.4 µM
CN(C)c1ccc(C=c2c3ccccc3n3c2c2ccccc2[n+]3C)cc1	32.8 µM
O=c1[nH]sc2cc(F)ccc12	56.2 µM

SMILES	IC50
CN(C)c1ccc(Cc2cc3c(O)ccc(O)c3cc(Cc3ccc(N(C)C)cc3)c2=O)cc1	54.7 µM
Cc1cc(C)nc(NC(N)=NCCc2ccccc2)n1	> 80 µM (inactive)
CCC(=O)OCCNc1cc(Sc2nc3ccccc3s2)c2nonc2c1[N+](=O)[O-]	> 80 µM (inactive)
COc1ccc2nc3cc(Cl)ccc3c(Nc3ccc(O)c(CN4CCN(C)CC4)c3)c2c1	> 80 µM (inactive)
COc1cc(NCCCn2ccc(NC(=O)OCc3ccccc3)nc2=O)cc(OC)c1OC	> 80 µM (inactive)
Cc1nc2ccc(Nc3nc4cc(S(=O)(=O)N5CCOCC5)ccc4o3)cc2s1	> 80 µM (inactive)
Cn1c(=O)[nH]c(=O)c2c1nc(SCCN1CCCCC1)n2CCCc1ccccc1	56.7 µM
N#CC1=C(N)Oc2c(O)cc3ccccc3c2C1c1ccsc1 (stereo unspecified)	55.6 µM
O=S(=O)(Nc1cc(Sc2cccc3cccnc23)c(O)c2ccccc12)c1ccc(F)cc1	59.4 µM
CN(C)C=Nc1ccc2nc3c(cc2c1)[nH]c1ccccc13	> 80 µM (inactive)
CCOc1ccc(Cl)cc1/C=N/NC(N)=O	48.7 µM
Cc1nc2c(o1)C(=O)c1ccccc1C2=Nc1ccccc1	> 80 µM (inactive)
COc1cc(N2C(=O)C=CC2=O)ccc1N1C(=O)C=CC1=O	19.5 µM
COC1=C(N)C(=O)c2nc(C)ccc2C1=O	> 80 µM (inactive)
O=C(Nc1nnc(C2CC2)s1)c1ccc(Cl)nc1	70.1 µM
NCCc1cc(O)c(O)cc1O	39.1 µM
Nc1ccc2c3c(cccc13)-c1ccccc1-2	41.3 µM
CCn1c(=O)n(CC)c2cc(N3CCCC3)c(NC(=O)c3cccc(C)c3)cc21	> 80 µM (inactive)
Cc1cc(C)c2c(=O)n(CC(=O)Nc3cccc(Cl)c3C)sc2n1	49.6 µM
O=c1c2cc(C(F)(F)F)ccc2sn1-c1ccccc1	20.3 µM
CN1C(=O)CSc2ccc(NC(=O)N3CCc4ccccc43)cc21	> 80 µM (inactive)
COc1ccc(NC2CCCN(Cc3cccc4cnccc34)C2)cc1OC (stereo unspecified)	> 80 µM (inactive)

SMILES	IC50
Cc1ccccc1N/C(SCc1cccc(Br)c1)=C(/C#N)C(N)=O	> 80 µM (inactive)
CC1=C(O)C(=O)C=C2C1=CC=C1C2(C)CCC2(C)C3CC(C)(C(=O)O)CCC3(C)CCC12C (stereo unspecified)	45.7 µM
O=C1NC(=O)N(c2ccccc2)C(=O)/C1=C/c1ccc([N+](=O)[O-])s1	> 80 µM (inactive)
C[C@H](NC(N)=O)C(=O)Nc1ccc(N2CCOCC2)c(S(=O)(=O)Nc2ccc(Cl)cc2)c1	> 80 µM (inactive)
C=C1C(=O)O[C@@H]2C[C@@H](C)[C@@H]3C=CC(=O)[C@@]3(C)[C@@H](OC(=O)CC(=O)O[C@H]3[C@@H]4C(=C)C(=O)O[C@@H]4C[C@@H](C)[C@@H]4C=CC(=O)[C@]43C)[C@H]12	> 80 µM (inactive)
CCOc1cc(CNc2ccc(N3CCCC3)cc2)cc(Cl)c1OC	> 80 µM (inactive)
COc1ccc(CCn2c(NN=C3CCCCC3)nc3c2c(=O)[nH]c(=O)n3C)cc1	> 80 µM (inactive)
CC(C)c1nnc(NC(=O)c2cc3ccccc3o2)s1	31.2 µM
Oc1ccc(-c2cn3c(n2)SCC3)cc1O	46.5 µM
Cc1cc(O)c(-c2cc(O)c(C)cc2O)cc1O	44.5 µM
Cc1ccc(NC(=O)c2cc(C)n(-c3ccccc3)c2C)cc1	> 80 µM (inactive)
O=C(Nc1ccc(N2CCN(C(=O)c3ccco3)CC2)c(Cl)c1)c1cc2ccccc2o1	53.8 µM
O=S(=O)(Nc1ccc(Cl)cc1)c1ccc(N2CCOCC2)c(NC(=S)NCCN2CCOCC2)c1	> 80 µM (inactive)
O=c1c2ccccc2sn1-c1ccc(S(=O)(=O)N2CCCCC2)cc1	> 80 µM (inactive)
Cc1nc2ccccn2c1-c1ccnn1S(=O)(=O)c1ccc(F)cc1	> 80 µM (inactive)
COc1cc(CNc2ccc(N3CCCC3)cc2)cc(Cl)c1OC	> 80 µM (inactive)
Cc1ccccc1OCC(=O)N/N=C/c1ccc(Sc2nc3ccccc3s2)o1	> 80 µM (inactive)
Nc1ccc(N(CCO)CCO)cc1	> 80 µM (inactive)
O=C(CBr)c1ccc([N+](=O)[O-])c(CS(=O)(=O)c2ccc(Cl)cc2)c1	> 80 µM (inactive)
CC(=O)Nc1ccc(S(=O)(=O)NNc2cccc(C)c2)cc1	> 80 µM (inactive)
Cc1ccc(-c2c(C(=O)N/N=C/c3cccs3)nnn2-c2nonc2N)cc1	> 80 µM (inactive)
COc1cc(N)c2ncccc2c1Cl	45.8 µM

SMILES	IC50
CCC(c1ccc(O)c(O)c1)C(CC)c1ccc(O)c(O)c1 (stereo unspecified)	> 80 µM (inactive)
NC1CCc2cc(O)c(O)cc2C1 (stereo unspecified)	34.5 µM
[O-]/[N+](=C\c1ccncc1)c1ccccc1	> 80 µM (inactive)
Cc1ccc(S(=O)(=O)SCCCSS(=O)(=O)c2ccc(C)cc2)cc1	35.6 µM
Cc1ccc(S(=O)(=O)N(C)C)cc1NC(=O)CSc1nc2ncc(Cl)cc2[nH]1	> 80 µM (inactive)
CCSc1nc2cc(S(=O)(=O)N3CCOCC3)ccc2o1	> 80 µM (inactive)
CCNc1cc2c(cc1O)CCC1C2CCC2(C)C(O)CCC12 (stereo unspecified)	35.7 µM
N#Cc1ccc(Oc2cccc3cccnc23)c([N+](=O)[O-])c1	> 80 µM (inactive)
O=C1Nc2cc(C(=O)NCCCN3CCCC3)ccc2S/C1=C\c1ccccc1	22.3 µM
O=S(=O)(Nc1cccc2cccnc12)c1ccccc1	20.9 µM
COc1ccc(CCn2c(NN=C(C)C)nc3c2c(=O)[nH]c(=O)n3C)cc1	> 80 µM (inactive)
Cc1ccc2nc3sc(C(=O)N4CCOCC4)c(N)c3cc2c1	37 µM
Cc1cc(C)c2c(=O)n(CC(=O)N3CCC(N4CCCCC4)CC3)sc2n1	48.4 µM
COC(=O)c1cc2c(n1S(=O)(=O)c1ccc(C)cc1)C(=O)C(=O)c1[nH]cc(C(=O)OCc3ccccc3)c1-2	> 80 µM (inactive)
Cc1ccc(/C=C/C(=O)NCc2ccc(S(N)(=O)=O)cc2)o1	> 80 µM (inactive)
Cc1ccc(N2CC(C(=O)OCC(=O)c3ccc([N+](=O)[O-])cc3)CC2=O)cc1 (stereo unspecified)	> 80 µM (inactive)
CN(C)c1ncc(C2=C(Cl)C(=O)C(N3CCCC3)=C(Cl)C2=O)s1	35.6 µM
Cc1ccc(SC2=C(Sc3ccc(C)cc3)C(=O)c3ccccc3C2=O)cc1	34.7 µM
C[C@H](NC(=O)c1cc2c(cn1)[nH]c1ccccc12)C(=O)O	> 80 µM (inactive)
CCOc1ccc2ccccc2c1/C=N/NC(=O)c1ccncc1	> 80 µM (inactive)
COc1cc(NCCCn2cnc(C(=O)Nc3ccc(C)c(C)c3)n2)cc(OC)c1OC	> 80 µM (inactive)
CN1C(=O)C(N=Nc2ccc([N+](=O)[O-])cc2)SC1=S (stereo unspecified)	> 80 µM (inactive)

SMILES	IC50
Cc1cc(O)c(C(C)C)cc1N=Cc1ccccc1[N+](=O)[O-]	> 80 µM (inactive)
O=c1c2ccccc2sn1-c1ccccc1F	15.5 µM
CCc1cc(-c2n[nH]c(C)c2-c2ccccc2Cl)c(O)cc1OC	> 80 µM (inactive)
O=C1Nc2cc(C(=O)NCCCN3CCCC3)ccc2S/C1=C/c1cccc(Cl)c1	34.2 µM
CCC1(C)CC(C(N)=S)CCO1 (stereo unspecified)	> 80 µM (inactive)
NCCNc1ccc(C(=O)N2c3ccccc3Sc3ccccc32)cc1[N+](=O)[O-]	23.5 µM
Cc1ccc(CNc2ccc(O)cc2)cc1	45.1 µM
CCc1nnc(NC(=O)c2ccc(Cl)nc2)s1	> 80 µM (inactive)
Cc1cc(C)c(S(=O)(=O)Nc2cc(SCC(=O)O)c(O)c3ccccc23)cc1C	41.4 µM
COc1cc(C(=O)O/N=C2\C=CC(=O)C=C2C)cc(OC)c1OC	> 80 µM (inactive)
O=C(OCC(=O)c1ccc([N+](=O)[O-])cc1)/C(=C\c1ccc(Cl)cc1)NC(=O)c1ccccc1	> 80 µM (inactive)
NC(=O)N/N=C/c1ccc(-n2nncc2-c2ccc(Cl)cc2)cc1	> 80 µM (inactive)
CN(C)S(=O)(=O)c1cccc(-n2sc3ccccc3c2=O)c1	12.8 µM
C[c-]1[c-](C)[c-](C)[c-](C)[c-]1C.[Fe].c1cc2nccc(N3CCCC3)[c-]2c1 (stereo unspecified)	52.9 µM
COc1cc(/C=N/Nc2nncn2N)ccc1OCc1c(C)no[n+]1[O-]	> 80 µM (inactive)
Cc1cnc(C=NNC(N)=S)c2cccc(N)c12	> 80 µM (inactive)
Cc1ccc(/C=C2\C(=O)NC(=S)N(c3ccccc3F)C2=O)s1	> 80 µM (inactive)
O=C(CCc1ccc(O)c(O)c1)N/N=C/c1cc2c(cc1[N+](=O)[O-])OCO2	16.6 µM
